A short description of series [1]: clinical study of skin brightening efficacy and skin redness (chromameter readings). The class given is in vivo, human. The following applies: emulsion 0.3% by weight. The protocol:
The skin brightening efficacy of p-HCA in ethoxydyglycol versus kojic acid also was tested in a clinical study. In this study, an emulsion containing 0.3%, by weight, p-HCA or kojic acid was used on twenty, mostly female, subjects between the ages of 30 to 50 years. The test composition was applied to the abdomen twice daily (a.m. and p.m.). The test was conducted for eight weeks, and chromameter readings were taken at baseline, and after 2, 4, 6, and 8 weeks.

Series [2] has as its system skin enzymes. Kind of series: metabolism of p-HCA in homogenized human skin. The class given is in vitro ADME. The following applies: human skin homogenate in PBS-ethanol, 37° C., eight hours of incubation. How it is done:
First, to confirm in vivo activity of p-HCA, the metabolism of p-HCA in the skin was determined. In this test, human skin was homogenized in a PBS (phosphate-buffered saline)-ethanol solution, followed by dissolution of p-HCA. The solution was incubated at 37° C. for 8 hours. Samples were taken after 0, 4, and 8 hours, and were centrifuged. The supernatant was filtered and analyzed by HPLC. […] The amount of p-HCA that is metabolized was considered insignificant with respect to an efficacious treatment of hyperpigmentation.

Series [3] is described as follows: solubility of p-HCA in solvents / hydroxy-containing compounds (HPLC). It is filed as physicochemical. The protocol:
Various solvents were tested for an ability to dissolve p-HCA and provide a suitable composition for topical application to efficaciously treat hyperpigmentation. p-HCA was added to various solvents, then sonicated for two hours at 35° C. until no further HCA was dissolved. The samples were cooled to room temperature (25° C.) and allowed to stabilize for 15 hours. The undissolved p-HCA was allowed to settle, the supernatant liquid was filtered, and diluted with the HPLC mobile phase for assay. All samples were analyzed by HPLC on a Hypersil ODS C18 column using water, methanol, glacial acetic acid (55:45:1) as the mobile phase. The flow rate was 1 ml/min and the wavelength for detection was 270 nm. […] p-Hydroxycinnamic acid was added to the hydroxy-containing compound and sonicated until no further p-HCA dissolved after two hours of sonication at 35° C. The test sample was cooled to room temperature, then stabilized for 15 hours. After the p-HCA was allowed to settle, the supernatant was filtered through a 0.2 micron syringe filter. Approximately 0.08 g of this filtered material was weighed into a 25 ml volumetric flask and diluted to volume with HPLC mobile phase. Two standards were analyzed by HPLC and compared to the two samples. The HPLC assay was identical to the HPLC assay discussed above.

Series [4] can be described thus: skin penetration, Franz diffusion cells. The class given is in vitro ADME, human. The protocol:
In another experiment, a 10% solution of p-HCA in ethoxydiglycol first was prepared. This solution was added to a skin care emulsion in a sufficient amount to provide either 0.3% or 0.1%, by weight, of p-HCA in the final composition. As a comparative example, 0.3%, by weight, of solid p-HCA was added to the same skin care emulsion. The skin care emulsion to which solid p-HCA or the p-HCA solution was added had the following formula (w/w %): • 85.35 water • 0.2 methylparaben • 0.35 xanthan gum • 5.0 butylene glycol • 4.0 sesame oil • 2.5 glyceryl stearate
The skin care emulsions containing p-HCA were applied to cadaver skin. Skin penetration of p-HCA was studied using Franz diffusion cells, n=5 (Permegear, Bethlehem, Pa.). The receptor contained an isotonic phosphate buffer with 30% ethanol, and was stirred continuously at 600 rpm. Samples of dermatomed human cadaver skin (NDRA, Philadelphia) were placed on the cells and prehydrated for 1 hour prior to the experiment. One milliliter of each formulation was added to the donor compartment of each cell, which was covered tightly with PARAFILM®. Samples (300 μl) were withdrawn from the receptor compartment every hour over 8 hours, and replaced with 300 μl of fresh receptor solution. After 8 hours, the skin was removed and cut into small pieces. The skin pieces were homogenized using a Kinematica POLYTRON® homogenizer and centrifuged. The supernatant was filtered through 0.22μ filters, and the p-HCA content was quantified.
All samples were analyzed by HPLC on a Hypersil ODS C18 column using water, methanol, glacial acetic acid (55:45:1) as the mobile phase at a flow rate of 1 ml/min and detection at 270 nm. Lag time and flux were obtained from permeation profiles and skin drug content also was recorded.
The following formula was tested for skin penetration: • Water 28.1% (by wt); • Carbopol 981 (2%) 17.0%; • Ethanol SDA 40b-190 53.0%; • Glycerin 1.0%; • Triethanolamine 0.4%; • p-Hydroxycinnamic acid 0.5%.
The method used to determine skin permeability was the Franz diffusion method disclosed above. […] In particular, 3.9 mcg/ml of p-HCA was found in the receptor compartment of the skin (i.e., permeated through the skin) as opposed to 16.3 mcg/ml p-HCA found within the skin.

Setting [5] is: hydroethanolic Carbopol gel formula with 0.5% p-hydroxycinnamic acid.
[6] abbreviates: in presence of ethoxydiglycol vs powder form.

The structures appear in SMILES notation.

For the compound `O=c1cc(CO)occ1O` [kojic acid], the skin redness entry in series [1] (throughout the eight-week clinical trial) is on record as “did not reduce redness”; in series [1] (weeks 4 and 8) it was “induced redness”.
In turn, `O=C(O)C=Cc1ccc(O)cc1` [p-HCA, p-hydroxycinnamic acid] had a p-HCA metabolized in series [2] of 3.6%. Further, the solubility is on record as 0.75 wt % in series [3] (30% hydroethanolic solution); 14.8 wt % in series [3] (Ethanol); 5.4 wt % in series [3] (PEG-8); 2.25 wt % in series [3] (butylene glycol); 7 wt % in series [3] (glycereth-26); 1.75 wt % in series [3] (pentylene glycol). Further, in series [3] (silicone fluid DC 193), the solubility is recorded as 4.7 wt %. Moreover, in series [4] (setting [5]), the “amount deposited in the skin relative to amount transmitted through the skin” value is given as “four times greater”. The “p-HCA found in the receptor compartment (permeated through the skin)” value in series [4] (setting [5]) was found to be 3.9 µg/mL. In addition, the “elevation of percent p-HCA that permeates cadaver skin” value in series [4] (setting [6]) is 43%. The “elevation of percentage of p-HCA that remained within the skin” value in series [4] (setting [6]) is reported as “about 50%”.
